# Experimental data published in US20240390298A1, “CYCLOHEXYL BETA-HYDROXY ALKYL AMINES AND MEDICAL USES THEREOF” (ATROGI AB, priority 2021, published 2024).
# Counter-ions that a name gives are not always drawn.
# Legend:
# L6-myotubes [1] = assay: Glucose uptake in differentiated L6-myotubes (3H-2-deoxyglucose), compared to isoproterenol; type: cell-based; conditions: agonist 1×10^−5 M, 50 nM 3H-2-deoxyglucose; for Emax at 10 µM: read-out: Biological example 1: glucose uptake, activity compared to that of isoproterenol
# Summary of the method: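 Serum-starved differentiated L6 myotubes stimulated with agonist at 1×10^−5 M for 1 h 40 min, re-dosed in glucose-free medium for 20 min, then given 50 nM ^3H-2-deoxyglucose for 10 min. Uptake read by β-counting of NaOH lysates; activity expressed relative to isoproterenol.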
# L6-myotubes [2] = assay: Measurement of intracellular cAMP levels in differentiated L6 cells (alpha screen cAMP kit), compared to isoproterenol; type: cell-based; conditions: Rattus norvegicus, L6, 0.25 h, agonist 1×10^−5 M, 15 min, read-out: Biological example 2: intracellular cAMP levels, activity compared to that of isoproterenol
# Summary of the method: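 L6 myoblasts were differentiated into myotubes over 7 days in 2% FBS, then serum-starved overnight. Agonist at 1×10^−5 M final was applied for 15 min in HBSS with 1% BSA, 5 mM HEPES and 1 mM IBMX, pH 7.4. After ethanol extraction and lysis, cAMP was quantified by AlphaScreen, with activity expressed relative to isoproterenol.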
Compound,"Biological example 1: glucose uptake, activity compared to that of isoproterenol (L6-myotubes [1])",Emax at 10 µM (L6-myotubes [2]) [%],Emax at 10 µM (L6-myotubes [1]) [%]
"COC(=O)[C@H]1CC[C@@H](CC(C)(C)NC[C@H](O)c2cccc(F)c2)CC1 [Example 103, Methyl (1S,4s)-4-(2-(((R)-2-(3-fluorophenyl)-2-hydroxyethyl)amino)-2-methylpropyl)cyclohexane-1-carboxylate]",+ + +,< 25,
"COC(=O)[C@H]1CC[C@@H](CC(C)(C)NC[C@H](O)c2cncc(F)c2)CC1 [Example 104, Methyl (1S,4s)-4-(2-(((R)-2-(5-fluoropyridin-3-yl)-2-hydroxyethyl)amino)-2-methylpropyl)cyclohexane-1-carboxylate]",+ + +,< 25,
"CC(C)(C[C@H]1CC[C@@H](C(=O)O)CC1)NC[C@H](O)c1cccc(F)c1 [Example 105, (1S,4s)-4-(2-(((R)-2-(3-Fluorophenyl)-2-hydroxyethyl)amino)-2-methylpropyl)cyclohexane-1-carboxylic acid]",,< 25,25 to 50
"CC(C)(C[C@H]1CC[C@@H](C(=O)O)CC1)NC[C@H](O)c1cncc(F)c1 [Example 106, (1S,4s)-4-(2-(((R)-2-(5-Fluoropyridin-3-yl)-2-hydroxyethyl)amino)-2-methylpropyl)cyclohexane-1-carboxylic acid]",,< 25,25 to 50
"COC(=O)[C@H]1CC[C@H](CC(C)(C)NC[C@H](O)c2cncc(F)c2)CC1 [Example 108, Methyl (1R,4r)-4-(2-(((R)-2-(5-fluoropyridin-3-yl)-2-hydroxyethyl)amino)-2-methylpropyl)cyclohexane-1-carboxylate]",+ +,< 25,
"CC(C)(C[C@H]1CC[C@H](C(=O)O)CC1)NC[C@H](O)c1cccc(F)c1 [Example 109, (1R,4r)-4-(2-(((R)-2-(3-fluorophenyl)-2-hydroxyethyl)amino)-2-methyl-propyl)cyclohexane-1-carboxylic acid acetate]",+ +,< 25,
"CC(C)(C[C@H]1CC[C@H](C(=O)O)CC1)NC[C@H](O)c1cncc(F)c1 [Example 110, (1R,4r)-4-(2-(((R)-2-(5-fluoropyridin-3-yl)-2-hydroxyethyl)amino)-2-methylpropyl)cyclohexane-1-carboxylic acid acetate]",,< 25,< 25
"COC(=O)[C@H]1CC[C@@H](CCC(C)(C)NC[C@H](O)c2cccc(F)c2)CC1 [Example 111, Methyl (1S,4s)-4-(3-(((R)-2-(3-fluorophenyl)-2-hydroxyethyl)amino)-3-methylbutyl)cyclohexane-1-carboxylate]",+ + +,25 to 50,
"CC(C)(CC[C@H]1CC[C@@H](C(=O)O)CC1)NC[C@H](O)c1cccc(F)c1 [Example 113, (1S,4s)-4-(3-(((R)-2-(3-Fluorophenyl)-2-hydroxyethyl)amino)-3-methyl-butyl)cyclohexane-1-carboxylic acid]",,< 25,25 to 50
"CC(C)(CC[C@H]1CC[C@@H](C(=O)O)CC1)NC[C@H](O)c1cncc(F)c1 [Example 114, (1S,4s)-4-(3-(((R)-2-(5-Fluoropyridin-3-yl)-2-hydroxyethyl)amino)-3-methylbutyl)cyclohexane-1-carboxylic acid]",+ + +,< 25,
"COC(=O)[C@H]1CC[C@H](CCC(C)(C)NC[C@H](O)c2cccc(F)c2)CC1 [Example 115, Methyl (1R,4r)-4-(3-(((R)-2-(3-fluorophenyl)-2-hydroxyethyl)amino)-3-methylbutyl)cyclohexane-1-carboxylate]",+ + +,< 25,
"CC(C)(CC[C@H]1CC[C@H](C(=O)O)CC1)NC[C@H](O)c1cccc(F)c1 [Example 117, (1R,4r)-4-(3-(((R)-2-(3-Fluorophenyl)-2-hydroxyethyl)amino)-3-methyl-butyl)cyclohexane-1-carboxylic acid]",,< 25,< 25
"CC(C)(CC[C@H]1CC[C@H](C(=O)O)CC1)NC[C@H](O)c1cncc(F)c1 [Example 118, (1R,4r)-4-(3-(((R)-2-(5-Fluoropyridin-3-yl)-2-hydroxyethyl)amino)-3-methylbutyl)cyclohexane-1-carboxylic acid]",,< 25,25 to 50
"CCOC(=O)CO[C@H]1CC[C@H](C(C)(C)NC[C@H](O)c2cccc(F)c2)CC1 [Example 123, Ethyl 2-(((1R,4r)-4-(2-(((R)-2-(3-fluorophenyl)-2-hydroxyethyl)amino)-propan-2-yl)cyclohexyl)oxy)acetate]",+ + +,< 25,
"CCOC(=O)CO[C@H]1CC[C@@H](C(C)(C)NC[C@H](O)c2cccc(F)c2)CC1 [Example 124, Ethyl 2-(((1S,4s)-4-(2-(((R)-2-(3-fluorophenyl)-2-hydroxyethyl)amino-)propan-2-yl)cyclohexyl)oxy)acetate]",+ +,< 25,
"CCOC(=O)CO[C@H]1CC[C@H](C(C)(C)NC[C@H](O)c2cncc(F)c2)CC1 [Example 125, Ethyl 2-(((1R,4r)-4-(2-(((R)-2-(5-fluoropyridin-3-yl)-2-hydroxyethyl)-amino)propan-2-yl)cyclohexyl)oxy)acetate]",+ + +,< 25,
"CC(C)(NC[C@H](O)c1cccc(F)c1)[C@H]1CC[C@H](OCC(=O)O)CC1 [Example 126, 2-(((1R,4r)-4-(2-(((R)-2-(3-Fluorophenyl)-2-hydroxyethyl)amino)propan-2-yl)cyclohexyl)oxy)acetic acid]",+ +,< 25,
"CC(C)(NC[C@H](O)c1cncc(F)c1)[C@H]1CC[C@H](OCC(=O)O)CC1 [Example 127, 2-(((1R,4r)-4-(2-(((R)-2-(5-Fluoropyridin-3-yl)-2-hydroxyethyl)amino)-propan-2-yl)cyclohexyl)oxy)acetic acid]",+ +,< 25,
"CC(C)(NC[C@H](O)c1cccc(F)c1)[C@H]1CC[C@@H](OCC(=O)O)CC1 [Example 128, 2-(((1S,4s)-4-(2-(((R)-2-(3-Fluorophenyl)-2-hydroxyethyl)amino)propan-2-yl)cyclohexyl)oxy)acetic acid]",+ +,< 25,
"CC(C)(C[C@H]1CC[C@@H](C#N)CC1)NC[C@H](O)c1cccc(F)c1 [Example 129, (1S,4s)-4-(2-(((R)-2-(3-Fluorophenyl)-2-hydroxyethyl)amino)-2-methylpropyl)cyclohexane-1-carbonitrile]",+ + +,25 to 50,
"CC(C)(C[C@H]1CC[C@H](N)CC1)NC[C@@H](O)c1cccc(C#N)n1 [Example 130, 6-((R)-2-((1-((1r,4R)-4-Aminocyclohexyl)-2-methylpropan-2-yl)amino)-1-hydroxyethyl)picolinonitrile trihydrochloride]",+ +,< 25,
"CC(C)(C[C@H]1CC[C@@H](N)CC1)NC[C@@H](O)c1cccc(C#N)n1 [Example 131, 6-((R)-2-((1-((1s,4S)-4-Aminocyclohexyl)-2-methylpropan-2-yl)amino)-1-hydroxyethyl)picolinonitrile trihydrochloride]",+ +,< 25,
"CC(C)(C[C@H]1CC[C@H](N)CC1)NC[C@H](O)c1cccc(C#N)n1 [Example 132, 6-((S)-2-((1-((1r,4S)-4-Aminocyclohexyl)-2-methylpropan-2-yl)amino)-1-hydroxyethyl)picolinonitrile trihydrochloride]",+ + +,25 to 50,
"CC(C)(C[C@H]1CC[C@@H](NC(=O)OC(C)(C)C)CC1)NC[C@H](O)c1cccc(C#N)n1 [Example 133, tert-Butyl ((1R,4s)-4-(2-(((5)-2-(6-Cyanopyridin-2-yl)-2-hydroxyethyl)-amino)-2-methylpropyl)cyclohexyl)carbamate]",+ +,< 25,
"CC(C)(C[C@H]1CC[C@@H](N)CC1)NC[C@H](O)c1cccc(C#N)n1 [Example 134, 6-((S)-2-((1-((1s,4R)-4-Aminocyclohexyl)-2-methylpropan-2-yl)amino)-1-hydroxyethyl)picolinonitrile trihydrochloride]",+ +,< 25,
"CC(=O)N[C@H]1CC[C@H](CC(C)(C)NC[C@@H](O)c2cccc(C#N)n2)CC1 [Example 135, N-((1R,4r)-4-(2-(((R)-2-(6-Cyanopyridin-2-yl)-2-hydroxyethyl)amino)-2-methylpropyl)cyclohexyl)acetamide]",+ +,< 25,
"CC(C)(C[C@H]1CC[C@H](NS(C)(=O)=O)CC1)NC[C@@H](O)c1cccc(C#N)n1 [Example 136, N-((1R,4r)-4-(2-(((R)-2-(6-Cyanopyridin-2-yl)-2-hydroxyethyl)amino)-2-methylpropyl)cyclohexyl)methanesulfonamide]",+ +,< 25,
